Experimental data reported in PubChem BioAssay (NCI).
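How tested: cells in 96-well plates exposed to compound for 48 hours at five concentrations. The concentration for full growth arrest is given as TGI.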

Legend:
Test in all cases: NCI tumour cell line growth inhibition, 48 h
HOP-18 NSCLC = system: HOP-18 NSCLC
KM20L2 colon = system: KM20L2 colon
SNB-78 CNS = system: SNB-78 CNS
DLD-1 colon = system: DLD-1 colon
XF 498 CNS = system: XF 498 CNS
MDA-N = system: MDA-N
RXF-631 renal = system: RXF-631 renal

Row | SMILES | TGI (HOP-18 NSCLC) | TGI (KM20L2 colon) | TGI (SNB-78 CNS) | TGI (DLD-1 colon) | TGI (XF 498 CNS) | TGI (MDA-N) | TGI (RXF-631 renal)
1 | N#Cc1ccccc1/C=N/O | > 100 µM | > 100 µM | > 100 µM | > 100 µM | > 100 µM |  | 
2 | O=C(/C=C/c1ccc2c(c1)OCO2)c1ccccc(=O)c1O |  |  |  |  |  | > 100 µM | 
3 | [O-][N+]1=C(c2ccccc2)COc2ccccc21 | > 100 µM | > 100 µM | > 100 µM | > 100 µM |  |  | > 100 µM
4 | N=C1N=Nc2nc(C3(c4nc5n(c4O)C(=N)N=N5)Cc4ccccc4C3=O)c(O)n21 (centres undefined) |  |  |  |  |  | > 100 µM | 
5 | Cc1ccc(S(=O)(=O)NC(=O)Nc2nc(Cl)cc(Cl)n2)cc1 | > 100 µM | > 100 µM | > 100 µM | > 100 µM | > 100 µM |  | > 100 µM
6 | C/C(CC(=O)Nc1ccc([N+](=O)[O-])cc1)=N/N=C(N)N |  | > 100 µM | > 100 µM | > 100 µM | > 100 µM |  | > 100 µM
7 | Cn1c2ccccc2c(=S)c2cc(NC(=O)CCCCC(=O)Nc3ccc4c(c3)c(=S)c3ccccc3n4C)ccc21 |  |  |  |  |  | > 100 µM | 
8 | COC(=O)c1cc(O)ccc1NC(=O)c1ccc(O)cc1 | > 100 µM | > 100 µM | > 100 µM | > 100 µM | > 100 µM |  | > 100 µM
9 | Cc1cc2c(=O)cc(-c3ccc(C(=O)O)cc3)oc2c(C(=O)O)c1C | > 100 µM | > 100 µM | > 100 µM | > 100 µM |  |  | > 100 µM
10 | O=C1CC23CC(=O)CC2(C1)c1ccccc1C3=O (centres undefined) | > 100 µM | > 100 µM | > 100 µM | > 100 µM | > 100 µM |  | 
11 | O=C(CCc1cc(-c2ccco2)n(-c2ccc([N+](=O)[O-])cc2[N+](=O)[O-])n1)Nc1ccccc1 |  | > 100 µM | > 100 µM | > 100 µM | > 100 µM |  | > 100 µM
12 | C=C1CCC2C(C)(CO)C(O)CCC2(C)C1CC(O)C1=CCOC1=O (centres undefined) | > 100 µM | > 100 µM |  | > 100 µM |  |  | > 100 µM
13 | O=C1/C(=c2\c3ccccc3n3c(=O)c4ccccc4nc23)Nc2ccccc21 |  |  |  |  |  | 33.6 µM | 
14 | COC(=O)/C(Cl)=C1/CC1COCc1ccccc1 (centres undefined) |  | > 100 µM | > 100 µM | 45.8 µM | 58.4 µM |  | 
15 | NC(CCCNCc1ccccc1O)C(=O)O (centres undefined) | > 100 µM | > 100 µM | > 100 µM | > 100 µM |  |  | 
16 | O=S(=O)(c1ccccc1)C1CN(Cc2ccccc2)CCN(Cc2ccccc2)C1 |  | > 100 µM |  | 84.7 µM | 63 µM | 59.5 µM | 
17 | O=[N+]([O-])c1ccc(C2N3CCCCC3[C@@H]3c4[nH]c5ccccc5c4CCN23)cc1 (some centres undefined) | > 100 µM | 24.5 µM | 21.6 µM | 57.7 µM | 33.9 µM |  | > 100 µM
18 | CNC(=S)N/N=C(/C)CCC/C(C)=N/NC(=S)NC |  |  |  |  |  | > 100 µM | 
19 | C/C(CN1C(=O)c2ccccc2C1=O)=N\NS(C)(=O)=O | > 100 µM | > 100 µM | > 100 µM | > 100 µM | > 100 µM |  | 
20 | O=CN/C=C/c1ccccc1O | > 100 µM | > 100 µM | > 100 µM | > 100 µM |  |  | 
21 | COc1ccc2c(c1)N(CCC1CCCCN1C)c1ccccc1S2 (centres undefined) |  |  |  |  |  | 25.7 µM | 
22 | O=C(Cc1nc2ccccc2s1)NC12CC3CC(CC(C3)C1)C2 |  | > 100 µM | > 100 µM | > 100 µM |  |  | > 100 µM
23 | COC(=O)[C@]1(C)CCC[C@]2(C)C3CC4OOC3(C=C4C(C)C)CCC21 (some centres undefined) |  | 32 µM | 32.3 µM | 29.1 µM |  |  | 
24 | Cc1cc(NC(=O)C(=O)Cc2nc3ccccc3s2)ccc1Cl | > 100 µM | > 100 µM | > 100 µM | > 100 µM | > 100 µM | > 100 µM | 
25 | CC(C)(C)C1CCN(C(=O)c2ccccc2)CC1 | > 100 µM | > 100 µM | > 100 µM | > 100 µM |  |  | 
26 | NS(=O)(=O)c1ccc(NCc2cnc3ccccc3c2)cc1 |  |  |  |  |  | > 100 µM | 
27 | O=c1[nH]c(C2CCCCC2)nc2cc(Cl)ccc12 |  | > 100 µM | > 100 µM |  |  |  | 
28 | Cc1ccccc1C(C#N)/C(=N/NC(=O)C(=O)NN)C(=O)Nc1cccc(C(F)(F)F)c1 (centres undefined) | > 100 µM | > 100 µM | > 100 µM | > 100 µM |  |  | > 100 µM
29 | COC(=O)C1CCc2nnc(-c3cccnc3)n21 (centres undefined) | > 100 µM | > 100 µM | > 100 µM | > 100 µM |  |  | > 100 µM
